# Laboratory results reported in the supplement of paper PMC4862054.
# System: MDA-MB-436
# Details: 72 h
# Procedure, shortened: (§1)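 EC50 is the value from a fitted percent-inhibition dose-response curve, censored at the highest concentration, and rows with zero drug sensitivity score were not kept. The underlying assay seeded breast cancer cell lines in 20 µl onto 384-well plates pre-loaded with compound in 5 µl medium for 72 h. Viability was then read by CellTiter-Blue fluorescence at 560/590 nm after 2 h at 37 °C, with each plate normalised to vehicle and a positive kill control.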
row,"EC50, CellTiter-Blue viability [nM]",SMILES
1,40.9,COC1=C2C[C@@H](C)C[C@H](OC)[C@H](O)[C@@H](C)/C=C(\C)[C@H](OC(N)=O)[C@@H](OC)/C=C\C=C(/C)C(=O)NC(=CC1=O)C2=O [Geldanamycin]
2,26.6,COC(=O)C[C@](O)(CCCC(C)(C)O)C(=O)O[C@@H]1C(OC)=C[C@]23CCCN2CCc2cc4c(cc2[C@H]13)OCO4 [Omacetaxine]
3,6370,C[C@@]1(C(=O)Nc2ccc(F)nc2)CCCN1c1nc(Nc2cc(C3CC3)n[nH]2)c2cccn2n1
4,26.4,COc1ncc(-c2ccc3nccc(-c4ccnnc4)c3c2)cc1NS(=O)(=O)c1ccc(F)cc1F

# System: HCC1143
# Details: 72 h
# Procedure, shortened: as §1
row,"EC50, CellTiter-Blue viability [nM]",SMILES
1,36.6,COC1=C2C[C@@H](C)C[C@H](OC)[C@H](O)[C@@H](C)/C=C(\C)[C@H](OC(N)=O)[C@@H](OC)/C=C\C=C(/C)C(=O)NC(=CC1=O)C2=O [Geldanamycin]
2,46.9,COC(=O)C[C@](O)(CCCC(C)(C)O)C(=O)O[C@@H]1C(OC)=C[C@]23CCCN2CCc2cc4c(cc2[C@H]13)OCO4 [Omacetaxine]
3,258,C[C@@]1(C(=O)Nc2ccc(F)nc2)CCCN1c1nc(Nc2cc(C3CC3)n[nH]2)c2cccn2n1
4,19.8,COc1ncc(-c2ccc3nccc(-c4ccnnc4)c3c2)cc1NS(=O)(=O)c1ccc(F)cc1F
5,14.2,Cn1c(=O)c(F)c(Nc2ccc(I)cc2F)c2c(=O)n(C[C@@H](O)CO)cnc21 [TAK-733]

# System: CAL-120
# Details: 72 h
# Procedure, shortened: as §1
row,SMILES,"EC50, CellTiter-Blue viability [nM]"
1,COC1=C2C[C@@H](C)C[C@H](OC)[C@H](O)[C@@H](C)/C=C(\C)[C@H](OC(N)=O)[C@@H](OC)/C=C\C=C(/C)C(=O)NC(=CC1=O)C2=O [Geldanamycin],38.1
2,COC(=O)C[C@](O)(CCCC(C)(C)O)C(=O)O[C@@H]1C(OC)=C[C@]23CCCN2CCc2cc4c(cc2[C@H]13)OCO4 [Omacetaxine],16.9
3,C[C@@]1(C(=O)Nc2ccc(F)nc2)CCCN1c1nc(Nc2cc(C3CC3)n[nH]2)c2cccn2n1,1930
4,COc1ncc(-c2ccc3nccc(-c4ccnnc4)c3c2)cc1NS(=O)(=O)c1ccc(F)cc1F,20.1
5,Cn1c(=O)c(F)c(Nc2ccc(I)cc2F)c2c(=O)n(C[C@@H](O)CO)cnc21 [TAK-733],401

# System: MDA-MB-468
# Details: 72 h
# Procedure, shortened: as §1
row,"EC50, CellTiter-Blue viability [nM]",SMILES
1,64.7,COC1=C2C[C@@H](C)C[C@H](OC)[C@H](O)[C@@H](C)/C=C(\C)[C@H](OC(N)=O)[C@@H](OC)/C=C\C=C(/C)C(=O)NC(=CC1=O)C2=O [Geldanamycin]
2,35.7,COC(=O)C[C@](O)(CCCC(C)(C)O)C(=O)O[C@@H]1C(OC)=C[C@]23CCCN2CCc2cc4c(cc2[C@H]13)OCO4 [Omacetaxine]
3,772,C[C@@]1(C(=O)Nc2ccc(F)nc2)CCCN1c1nc(Nc2cc(C3CC3)n[nH]2)c2cccn2n1
4,49.8,COc1ncc(-c2ccc3nccc(-c4ccnnc4)c3c2)cc1NS(=O)(=O)c1ccc(F)cc1F

# System: HCC1599
# Details: 72 h
# Procedure, shortened: as §1
row,"EC50, CellTiter-Blue viability [nM]",SMILES
1,270,COC1=C2C[C@@H](C)C[C@H](OC)[C@H](O)[C@@H](C)/C=C(\C)[C@H](OC(N)=O)[C@@H](OC)/C=C\C=C(/C)C(=O)NC(=CC1=O)C2=O [Geldanamycin]
2,18,COC(=O)C[C@](O)(CCCC(C)(C)O)C(=O)O[C@@H]1C(OC)=C[C@]23CCCN2CCc2cc4c(cc2[C@H]13)OCO4 [Omacetaxine]
3,70.8,C[C@@]1(C(=O)Nc2ccc(F)nc2)CCCN1c1nc(Nc2cc(C3CC3)n[nH]2)c2cccn2n1
4,7.37,COc1ncc(-c2ccc3nccc(-c4ccnnc4)c3c2)cc1NS(=O)(=O)c1ccc(F)cc1F

# System: SK-BR-3
# Details: 72 h
# Procedure, shortened: as §1
row,"EC50, CellTiter-Blue viability [nM]",SMILES
1,46.8,COC1=C2C[C@@H](C)C[C@H](OC)[C@H](O)[C@@H](C)/C=C(\C)[C@H](OC(N)=O)[C@@H](OC)/C=C\C=C(/C)C(=O)NC(=CC1=O)C2=O [Geldanamycin]
2,34.3,COC(=O)C[C@](O)(CCCC(C)(C)O)C(=O)O[C@@H]1C(OC)=C[C@]23CCCN2CCc2cc4c(cc2[C@H]13)OCO4 [Omacetaxine]
3,588,C[C@@]1(C(=O)Nc2ccc(F)nc2)CCCN1c1nc(Nc2cc(C3CC3)n[nH]2)c2cccn2n1
4,3.24,COc1ncc(-c2ccc3nccc(-c4ccnnc4)c3c2)cc1NS(=O)(=O)c1ccc(F)cc1F

# System: MFM-223
# Details: 72 h
# Procedure, shortened: as §1
row,SMILES,"EC50, CellTiter-Blue viability [nM]"
1,COC1=C2C[C@@H](C)C[C@H](OC)[C@H](O)[C@@H](C)/C=C(\C)[C@H](OC(N)=O)[C@@H](OC)/C=C\C=C(/C)C(=O)NC(=CC1=O)C2=O [Geldanamycin],90
2,COC(=O)C[C@](O)(CCCC(C)(C)O)C(=O)O[C@@H]1C(OC)=C[C@]23CCCN2CCc2cc4c(cc2[C@H]13)OCO4 [Omacetaxine],45.3
3,C[C@@]1(C(=O)Nc2ccc(F)nc2)CCCN1c1nc(Nc2cc(C3CC3)n[nH]2)c2cccn2n1,1310
4,COc1ncc(-c2ccc3nccc(-c4ccnnc4)c3c2)cc1NS(=O)(=O)c1ccc(F)cc1F,8.62
5,Cn1c(=O)c(F)c(Nc2ccc(I)cc2F)c2c(=O)n(C[C@@H](O)CO)cnc21 [TAK-733],17.5

# System: Hs578T
# Details: 72 h
# Procedure, shortened: as §1
row,SMILES,"EC50, CellTiter-Blue viability [nM]"
1,COC1=C2C[C@@H](C)C[C@H](OC)[C@H](O)[C@@H](C)/C=C(\C)[C@H](OC(N)=O)[C@@H](OC)/C=C\C=C(/C)C(=O)NC(=CC1=O)C2=O [Geldanamycin],90.5
2,COC(=O)C[C@](O)(CCCC(C)(C)O)C(=O)O[C@@H]1C(OC)=C[C@]23CCCN2CCc2cc4c(cc2[C@H]13)OCO4 [Omacetaxine],44
3,C[C@@]1(C(=O)Nc2ccc(F)nc2)CCCN1c1nc(Nc2cc(C3CC3)n[nH]2)c2cccn2n1,4740
4,COc1ncc(-c2ccc3nccc(-c4ccnnc4)c3c2)cc1NS(=O)(=O)c1ccc(F)cc1F,36.6
5,Cn1c(=O)c(F)c(Nc2ccc(I)cc2F)c2c(=O)n(C[C@@H](O)CO)cnc21 [TAK-733],114

# System: MDA-MB-231
# Details: 72 h
# Procedure, shortened: as §1
row,"EC50, CellTiter-Blue viability [nM]",SMILES
1,63.1,COC1=C2C[C@@H](C)C[C@H](OC)[C@H](O)[C@@H](C)/C=C(\C)[C@H](OC(N)=O)[C@@H](OC)/C=C\C=C(/C)C(=O)NC(=CC1=O)C2=O [Geldanamycin]
2,36.3,COC(=O)C[C@](O)(CCCC(C)(C)O)C(=O)O[C@@H]1C(OC)=C[C@]23CCCN2CCc2cc4c(cc2[C@H]13)OCO4 [Omacetaxine]
3,435,C[C@@]1(C(=O)Nc2ccc(F)nc2)CCCN1c1nc(Nc2cc(C3CC3)n[nH]2)c2cccn2n1
4,33.5,COc1ncc(-c2ccc3nccc(-c4ccnnc4)c3c2)cc1NS(=O)(=O)c1ccc(F)cc1F
5,4.92,Cn1c(=O)c(F)c(Nc2ccc(I)cc2F)c2c(=O)n(C[C@@H](O)CO)cnc21 [TAK-733]

# System: BT-474
# Details: 72 h
# Procedure, shortened: as §1
row,"EC50, CellTiter-Blue viability [nM]",SMILES
1,62,COC1=C2C[C@@H](C)C[C@H](OC)[C@H](O)[C@@H](C)/C=C(\C)[C@H](OC(N)=O)[C@@H](OC)/C=C\C=C(/C)C(=O)NC(=CC1=O)C2=O [Geldanamycin]
2,92.8,COC(=O)C[C@](O)(CCCC(C)(C)O)C(=O)O[C@@H]1C(OC)=C[C@]23CCCN2CCc2cc4c(cc2[C@H]13)OCO4 [Omacetaxine]
3,13.5,COc1ncc(-c2ccc3nccc(-c4ccnnc4)c3c2)cc1NS(=O)(=O)c1ccc(F)cc1F

# System: BT-549
# Details: 72 h
# Procedure, shortened: as §1
row,"EC50, CellTiter-Blue viability [nM]",SMILES
1,46.8,COC1=C2C[C@@H](C)C[C@H](OC)[C@H](O)[C@@H](C)/C=C(\C)[C@H](OC(N)=O)[C@@H](OC)/C=C\C=C(/C)C(=O)NC(=CC1=O)C2=O [Geldanamycin]
2,32.1,COC(=O)C[C@](O)(CCCC(C)(C)O)C(=O)O[C@@H]1C(OC)=C[C@]23CCCN2CCc2cc4c(cc2[C@H]13)OCO4 [Omacetaxine]
3,1310,C[C@@]1(C(=O)Nc2ccc(F)nc2)CCCN1c1nc(Nc2cc(C3CC3)n[nH]2)c2cccn2n1
4,45.1,COc1ncc(-c2ccc3nccc(-c4ccnnc4)c3c2)cc1NS(=O)(=O)c1ccc(F)cc1F

# System: HCC1937
# Details: 72 h
# Procedure, shortened: as §1
row,"EC50, CellTiter-Blue viability [nM]",SMILES
1,47.1,COC1=C2C[C@@H](C)C[C@H](OC)[C@H](O)[C@@H](C)/C=C(\C)[C@H](OC(N)=O)[C@@H](OC)/C=C\C=C(/C)C(=O)NC(=CC1=O)C2=O [Geldanamycin]
2,9.68,COC(=O)C[C@](O)(CCCC(C)(C)O)C(=O)O[C@@H]1C(OC)=C[C@]23CCCN2CCc2cc4c(cc2[C@H]13)OCO4 [Omacetaxine]
3,3300,C[C@@]1(C(=O)Nc2ccc(F)nc2)CCCN1c1nc(Nc2cc(C3CC3)n[nH]2)c2cccn2n1
4,27.9,COc1ncc(-c2ccc3nccc(-c4ccnnc4)c3c2)cc1NS(=O)(=O)c1ccc(F)cc1F

# System: MDA-MB-436
# Details: 72 h
# Remark: another data set of the same source
# Procedure, shortened: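 For viability and cell death testing, 384-well plates carried compound at 5 concentrations in 10-fold steps over a compound-specific 10,000-fold range, and breast cancer cell lines were seeded in 20 µl suspension. After 72 h incubation, cell death was read by CellTox Green fluorescence (485/520 nm) before viability was read by CellTiter-Glo luminescence. EC50 was fitted from the dose-response curves and censored at the top concentration. Normalisation on each plate was to 0.1 % DMSO and a positive kill control.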
row,"EC50, CellTiter-Glo [nM]",SMILES
1,5620,CN(c1ccccc1CNc1nc(Nc2ccc3c(c2)CC(=O)N3)ncc1C(F)(F)F)S(C)(=O)=O
